Experimental data taken from US7402674B2, “7-Phenylamino-4-quinolone-3-carboxylic acid derivatives, process for their preparation and their use as medicaments” (Sanofi-Aventis Deutschland GmbH,, priority 2004, dated 2008).

Target: T1, human glycogen phosphorylase a (Homo sapiens, UniProt P06737)
T1 sequence (P06737 1-847): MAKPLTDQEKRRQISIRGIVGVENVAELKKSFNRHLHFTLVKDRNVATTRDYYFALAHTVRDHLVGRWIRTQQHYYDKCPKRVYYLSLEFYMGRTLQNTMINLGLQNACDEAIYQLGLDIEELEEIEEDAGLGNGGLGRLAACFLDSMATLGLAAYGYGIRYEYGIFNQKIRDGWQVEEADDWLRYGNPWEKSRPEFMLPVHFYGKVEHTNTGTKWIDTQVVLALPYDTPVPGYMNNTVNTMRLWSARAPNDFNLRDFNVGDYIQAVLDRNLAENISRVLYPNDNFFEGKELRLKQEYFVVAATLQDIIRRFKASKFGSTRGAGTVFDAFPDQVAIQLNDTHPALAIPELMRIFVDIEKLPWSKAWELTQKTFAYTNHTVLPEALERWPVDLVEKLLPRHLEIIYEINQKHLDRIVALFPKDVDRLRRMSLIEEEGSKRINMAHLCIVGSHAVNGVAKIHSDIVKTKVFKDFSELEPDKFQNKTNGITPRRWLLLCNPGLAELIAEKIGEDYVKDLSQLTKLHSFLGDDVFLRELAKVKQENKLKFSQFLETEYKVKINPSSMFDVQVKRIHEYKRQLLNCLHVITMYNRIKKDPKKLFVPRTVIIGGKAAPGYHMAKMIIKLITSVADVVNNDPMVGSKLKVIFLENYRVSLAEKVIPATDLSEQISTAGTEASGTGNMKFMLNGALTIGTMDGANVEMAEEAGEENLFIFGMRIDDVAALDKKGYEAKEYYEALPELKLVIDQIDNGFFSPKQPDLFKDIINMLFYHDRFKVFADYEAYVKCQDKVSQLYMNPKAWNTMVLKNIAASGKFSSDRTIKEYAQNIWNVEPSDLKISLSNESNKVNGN
Test: Glycogen phosphorylase a activity assay
Type: biochemical
Conditions: 10 μM test substance; reverse direction (glycogen synthesis from glucose 1-phosphate, liberated inorganic phosphate)
Method: Glycogen Phosphorylase a Activity Assay
The effect of compounds on the activity of the active form of glycogen phosphorylase (GPa) was measured in the reverse direction by following the synthesis of glycogen from glucose 1-phosphate by determining the liberation of inorganic phosphate. All the reactions were carried out as duplicate determinations in microtiter plates with 96 wells (Half Area Plates, Costar No 3696), measuring the change in absorption owing to the formation of the reaction product at the wavelength specified hereinafter in a Multiskan Ascent Elisa Reader (Lab Systems, Finland).
In order to measure the GPa enzymic activity in the reverse direction, the general method of Engers et al. (Engers H D, Shechosky S, Madsen N B, Can J Biochem 1970 July; 48(7):746-754) was used to measure the conversion of glucose 1-phosphate into glycogen and inorganic phosphate, with the following modifications: human glycogen phosphorylase a (for example with 0.76 mg of protein/ml (Aventis Pharma Deutschland GmbH), dissolved in buffer solution E (25 mM β-glycerophosphate, pH 7.0, 1 mM EDTA and 1 mM dithiothreitol) was diluted with buffer T (50 mM Hepes, pH 7.0, 100 mM KCl, 2.5 mM EDTA, 2.5 mM MgCl2.6H2O) and addition of 5 mg/ml glycogen to a concentration of 10 μg of protein/ml. […] After incubation at 45° C. for 60 minutes, the absorption at 820 nm was measured. […]

1-Ethyl-6-(4-ethylphenylamino)-7-methyl-4-oxo-1,4-dihydro-[1,8]naphthyridine-3-carboxylate [Example 1]
% inhibition at 10 μM: 14%
